The values below come from publication PMC12142043, “Cell-based high-content approach for SARS-CoV-2 neutralization identifies unique monoclonal antibodies and PI3K pathway inhibitors” (Frontiers in Cell and Developmental Biology, 2025).

The subject of this assay is SARS-CoV-2 (USA-WA1/2020) in Calu-3 cells. The format is cell-based.
The mark [1] stands for this setting: high dose (10 µM), Calu-3, 48 h.
Setting [2] is: low dose (100 nM), Calu-3, 48 h.

Where a name gives a salt, the structure may show the parent alone. Read-outs that look alike come from different tables or passages of the source.

Regarding `CN1CC[C@H](c2c(O)cc(O)c3c(=O)cc(-c4ccccc4Cl)oc23)[C@H](O)C1` [Flavopiridol], the “dsRNA signal, AU High” value under setting [1] turned out to be 411.3 AU. The “dsRNA signal, AU Low” value under setting [2] turned out to be 2633.8 AU.
Regarding `O=C(O)c1ccccc1Nc1cccc(C(F)(F)F)c1` [Flufenamic acid], under setting [1], the “dsRNA signal, AU High” value came out at 29762.4 AU. In addition, the “dsRNA signal, AU Low” value under setting [2] amounted to 15182.6 AU.
In the case of `O=C(O)/C=C/C(=O)O` [Fumalic acid], under setting [1], the “dsRNA signal, AU High” value is given as 4691.7 AU. In addition, the “dsRNA signal, AU Low” value under setting [2] was determined as 6874.3 AU.
As to `O=C(NOCCO)c1ccc2cncn2c1Nc1ccc(I)cc1F` [GDC-0623], under setting [1], the “dsRNA signal, AU High” value is on record as 0.0 AU. Also, under setting [2], the “dsRNA signal, AU Low” value turned out to be 1908.1 AU.
Take `OCCn1cc(-c2ccc3c(c2)CC/C3=N\O)c(-c2ccncc2)n1` [GDC-0879]: under setting [1], the “dsRNA signal, AU High” value is recorded as 7041.8 AU. For the same molecule, the “dsRNA signal, AU Low” value under setting [2] stood at 38492.2 AU.
For the molecule `CS(=O)(=O)N1CCN(Cc2cc3nc(-c4cccc5[nH]ncc45)nc(N4CCOCC4)c3s2)CC1.CS(=O)(=O)O.CS(=O)(=O)O` [GDC-0941 dimethanesulfonate], the “dsRNA signal, AU High” value under setting [1] was 20950.7 AU. Further, the “dsRNA signal, AU Low” value under setting [2] was 35251.8 AU.
Turning to `CS(=O)(=O)N1CCN(Cc2cc3nc(-c4cccc5[nH]ncc45)nc(N4CCOCC4)c3s2)CC1` [GDC-0941], under setting [1], the “dsRNA signal, AU High” value stood at 590.8 AU. Moreover, the “dsRNA signal, AU Low” value under setting [2] stood at 57346.3 AU.
As to `Cn1nccc1Nc1nccc(-c2ccn([C@H](CO)c3ccc(Cl)c(F)c3)c(=O)c2)n1` [GDC-0994], the “dsRNA signal, AU High” value under setting [1] was found to be 4912.8 AU. Further, the “dsRNA signal, AU Low” value under setting [2] is reported as 7646.0 AU.
For `O=C(Nc1nc2cccc(-c3ccc(CN4CCS(=O)(=O)CC4)cc3)n2n1)C1CC1` [GLPG0634], in that order: 36.1 AU and 2690.2 AU.
As for `CNc1nc(Nc2cnn([C@H]3CCN(C4COC4)C[C@@H]3F)c2Cl)ncc1C(F)(F)F` [GNE-9605], under setting [1], the “dsRNA signal, AU High” value is reported as 40803.1 AU. Also, under setting [2], the “dsRNA signal, AU Low” value was 41939.9 AU.
In the case of `NC(=O)c1cccc(-c2cc(Nc3ccc(OC(F)(F)F)cc3)ncn2)c1` [GNF 2], the “dsRNA signal, AU High” value under setting [1] stood at 2578.1 AU. Under setting [2], the “dsRNA signal, AU Low” value is 60765.8 AU.
In the case of `O=C(NCCO)c1cccc(-c2cc(Nc3ccc(OC(F)(F)F)cc3)ncn2)c1` [GNF 5], the “dsRNA signal, AU High” value under setting [1] was 498.5 AU. Further, the “dsRNA signal, AU Low” value under setting [2] amounted to 65630.6 AU.
As for `Cc1ccc(NC(=O)Nc2cc(C(F)(F)F)ccc2F)cc1Nc1ccc2c(c1)NC(=O)/C2=C\c1ccc[nH]1` [GNF-5837], the “dsRNA signal, AU High” value under setting [1] came to 2750.0 AU. Under setting [2], the “dsRNA signal, AU Low” value is on record as 23319.5 AU.
With `c1cn2cc(-c3ccc4cn[nH]c4c3)nc(Nc3ccc(N4CCOCC4)cc3)c2n1` [GS-9973], under setting [1], the “dsRNA signal, AU High” value turned out to be 32878.5 AU. For the same molecule, under setting [2], the “dsRNA signal, AU Low” value is given as 51541.3 AU.
On to `CC1=C(C(=O)Nc2cc3cn[nH]c3cc2F)C(c2ccc(C(F)(F)F)cc2)CC(=O)N1` (stereo not shown) [GSK429286A], for which the “dsRNA signal, AU High” value under setting [1] stood at 10329.9 AU. In addition, the “dsRNA signal, AU Low” value under setting [2] is reported as 34075.4 AU.
Regarding `CCn1c(-c2nonc2N)nc2c(C#CC(C)(C)O)ncc(OC[C@H]3CCCNC3)c21` [GSK690693], the “dsRNA signal, AU High” value under setting [1] came out at 6007.3 AU. Also, the “dsRNA signal, AU Low” value under setting [2] is 39582.1 AU.
Consider `O=C1NC(=O)/C(=C/c2ccc3nccc(-c4ccncc4)c3c2)S1` [GSK1059615], for which the “dsRNA signal, AU High” value under setting [1] is 832.8 AU. Moreover, the “dsRNA signal, AU Low” value under setting [2] turned out to be 16639.6 AU.
`Cn1cc(-c2ccc3c(c2)CCN3C(=O)Cc2cccc(C(F)(F)F)c2)c2c(N)ncnc21` [GSK2606414]: under setting [1], the “dsRNA signal, AU High” value amounted to 6871.8 AU. In addition, the “dsRNA signal, AU Low” value under setting [2] worked out at 28375.6 AU.
Consider `Cc1cccc(CC(=O)N2CCc3c2ccc(-c2cn(C)c4ncnc(N)c24)c3F)n1` [GSK2656157], for which, under setting [1], the “dsRNA signal, AU High” value is on record as 2371.9 AU. Moreover, under setting [2], the “dsRNA signal, AU Low” value came out at 33522.6 AU.
Turning to `COc1ccc(COc2ccc(Cc3cnc(N)nc3N)cc2OC)cc1` [GW2580], the “dsRNA signal, AU High” value under setting [1] stood at 17974.9 AU. Also, under setting [2], the “dsRNA signal, AU Low” value worked out at 13531.9 AU.
On to `O=C1Nc2ccc(I)cc2/C1=C/c1cc(Br)c(O)c(Br)c1` [GW5074], for which, under setting [1], the “dsRNA signal, AU High” value was determined as 14683.4 AU. The “dsRNA signal, AU Low” value under setting [2] was 20240.6 AU.
On to `Cn1cc(/C=C2\C(=O)Nc3cccnc32)c2ccccc21` [GW441756], for which the “dsRNA signal, AU High” value under setting [1] was 33214.4 AU. In addition, under setting [2], the “dsRNA signal, AU Low” value is reported as 18067.5 AU.
As for `O=C(NC1CCOCC1)c1ccc(-c2cc(-c3c[nH]nc3-c3ccccn3)ccn2)cc1` [GW788388], the “dsRNA signal, AU High” value under setting [1] is on record as 8820.5 AU. Moreover, under setting [2], the “dsRNA signal, AU Low” value was found to be 0.0 AU.
The matching figures for `Cc1ccc(C(=O)Nc2ccc(CN3CCN(C)CC3)c(C(F)(F)F)c2)cc1C#Cc1cnc2[nH]ncc2c1` [GZD824]: 64275.0 AU and 33439.8 AU.
For the molecule `O=c1c(O)c(-c2ccccc2)oc2cc(O)cc(O)c12` [Galangin;3,5,7-Trihydroxyflavone], the “dsRNA signal, AU High” value under setting [1] is reported as 16189.5 AU. Moreover, the “dsRNA signal, AU Low” value under setting [2] came out at 46015.9 AU.
With `COc1cc2ncnc(Nc3ccc(F)c(Cl)c3)c2cc1OCCCN1CCOCC1.Cl` [Gefitinib hydrochloride], the “dsRNA signal, AU High” value came to 0.0 and the “dsRNA signal, AU Low” value is recorded as 28000.5.
For `CC(C)=CCC[C@](C)(O[C@@H]1O[C@H](CO[C@@H]2O[C@H](CO)[C@@H](O)[C@H](O)[C@H]2O)[C@@H](O)[C@H](O)[C@H]1O)[C@H]1CC[C@]2(C)[C@@H]1[C@H](O)C[C@@H]1[C@@]3(C)CC[C@H](O[C@@H]4O[C@H](CO)[C@@H](O)[C@H](O)[C@H]4O[C@@H]4O[C@H](CO)[C@@H](O)[C@H](O)[C@H]4O)C(C)(C)[C@@H]3CC[C@]12C` [Ginsenoside Rb1], the “dsRNA signal, AU High” value under setting [1] is 7414.4 AU. Further, the “dsRNA signal, AU Low” value under setting [2] was found to be 52585.8 AU.
The matching figures for `CC(C)=CCC[C@](C)(O[C@@H]1O[C@H](CO)[C@@H](O)[C@H](O)[C@H]1O)[C@H]1CC[C@]2(C)[C@@H]1[C@H](O)C[C@@H]1[C@@]3(C)CC[C@H](O)C(C)(C)[C@@H]3[C@@H](O[C@@H]3O[C@H](CO)[C@@H](O)[C@H](O)[C@H]3O[C@@H]3O[C@@H](C)[C@H](O)[C@@H](O)[C@H]3O)C[C@]12C` [Ginsenoside Re]: 10054.1 AU and 65920.2 AU.
Regarding `CC(C)=CCC[C@](C)(O)[C@H]1CC[C@]2(C)[C@@H]1[C@H](O)C[C@@H]1[C@@]3(C)CC[C@H](O[C@@H]4O[C@H](CO)[C@@H](O)[C@H](O)[C@H]4O)C(C)(C)[C@@H]3CC[C@]12C` [Ginsenoside Rh2], under setting [1], the “dsRNA signal, AU High” value is reported as 41827.1 AU. For the same molecule, the “dsRNA signal, AU Low” value under setting [2] is on record as 30569.1 AU.
The matching figures for `COc1ccc2c(c1)c(C1=C(c3c[nH]c4ccccc34)C(=O)NC1=O)cn2CCCN(C)C` [Go 6983]: 52923.0 AU and 26190.1 AU.
Regarding `CN1CCN(C2CCN(C(=O)Nc3cc(Oc4ccc(NC(=O)C5(C(=O)Nc6ccc(F)cc6)CC5)c(F)c4)ccn3)CC2)CC1` [Golvatinib (E7050)], the “dsRNA signal, AU High” value under setting [1] came out at 36777.1 AU. For the same molecule, under setting [2], the “dsRNA signal, AU Low” value stood at 23267.5 AU.
For the molecule `Cl.Cl.O=S(=O)(NCCNC/C=C/c1ccc(Br)cc1)c1cccc2cnccc12` [H 89 2HCl], the “dsRNA signal, AU High” value under setting [1] stood at 7807.6 AU. Further, the “dsRNA signal, AU Low” value under setting [2] was determined as 56279.7 AU.
The matching figures for `Cl.O=S(=O)(c1cccc2cnccc12)N1CCNCC1` [HA-100 (hydrochloride)]: 27295.9 AU and 14084.7 AU.
For `CCOC(=O)c1cnc2ccc(-c3cncc(NS(=O)(=O)c4ccccc4)c3)cn12` [HS-173], the “dsRNA signal, AU High” value under setting [1] amounted to 345.7 AU. In addition, under setting [2], the “dsRNA signal, AU Low” value stood at 31987.4 AU.
For `Cc1nc(Nc2cnn(C3CCNCC3)c2)nc2c1N(C)C(=O)c1cc3ccccc3cc1N2C` [HTH-01-015], in that order: 4731.3 AU and 21129.9 AU.
For the molecule `COc1ccc2c(c1)[nH]c1c(C)nccc12` [Harmine hydrochloride], the “dsRNA signal, AU High” value under setting [1] is reported as 0.0 AU. Besides, under setting [2], the “dsRNA signal, AU Low” value came to 53937.1 AU.
In the case of `COc1ccc2c(c1)[nH]c1c(C)nccc12` [Harmine], the “dsRNA signal, AU High” value under setting [1] is 9958.7 AU. Also, under setting [2], the “dsRNA signal, AU Low” value is 24294.0 AU.
Consider `Cl.O=c1[nH]ccc2c(S(=O)(=O)N3CCCNCC3)cccc12` [Hydroxyfasudil hydrochloride], for which the “dsRNA signal, AU High” value under setting [1] is reported as 2331.1 AU. Under setting [2], the “dsRNA signal, AU Low” value came to 751.7 AU.
For `COc1cc(OC)c(C=C2C(O)=Nc3ccccc32)c(OC)c1` [IC261], in that order: 6564.9 AU and 46952.8 AU.
Take `O=C(Nc1cc(C(F)(F)F)cc(C(F)(F)F)c1)c1cc(Cl)ccc1O` [IMD 0354]: the “dsRNA signal, AU High” value under setting [1] worked out at 3341.9 AU. Moreover, the “dsRNA signal, AU Low” value under setting [2] was 20862.1 AU.
The matching figures for `CNC(=O)c1ccc(-c2cnc3ncc(Cc4ccc5ncccc5c4)n3n2)cc1F` [INCB28060]: 59276.3 AU and 63091.3 AU.
As for `COc1cc(N2CCOCC2)ccc1NC(=O)c1csc(-c2cccnc2)n1` [IRAK inhibitor 6], the “dsRNA signal, AU High” value under setting [1] came to 19776.5 AU. In addition, the “dsRNA signal, AU Low” value under setting [2] was 7334.0 AU.
For `O=C(Nc1nc2ccccc2n1CCN1CCOCC1)c1cccc([N+](=O)[O-])c1` [IRAK-1-4 Inhibitor I], the “dsRNA signal, AU High” value under setting [1] stood at 21347.7 AU. The “dsRNA signal, AU Low” value under setting [2] is 22363.0 AU.
For `C#Cc1cccc(Nc2ncnc3cc4c(cc23)OCCOCCOCCO4)c1` [Icotinib], in that order: 11365.1 AU and 24561.1 AU.
For `Nc1nc(Nc2ccc(S(N)(=O)=O)cc2)nn1C(=O)c1c(F)cccc1F` [JNJ-7706621], in that order: 0.0 AU and 4378.3 AU.
In the case of `Cn1cc(-c2ccc3nnc(C(F)(F)c4ccc5ncccc5c4)n3n2)cn1` [JNJ-38877605], under setting [1], the “dsRNA signal, AU High” value was found to be 9345.0 AU. Besides, the “dsRNA signal, AU Low” value under setting [2] was found to be 32468.4 AU.
The matching figures for `CN(C)C/C=C/C(=O)Nc1cccc(C(=O)Nc2ccc(Nc3nccc(-c4cccnc4)n3)cc2)c1` [JNK-IN-7]: 66910.1 AU and 45982.8 AU.
